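Cells were grown in 96-well plates and exposed to each compound for 48 hours at five concentrations; endpoints were interpolated linearly between bracketing concentrations, or set to the highest concentration if not reached. Here, GI50 denotes the concentration required for 50% inhibition of growth. TGI: concentration producing complete growth inhibition.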
Assays:
Assay in all cases: NCI-60 cell line screen, 48 h
UACC-257 melanoma = system: UACC-257 melanoma
MOLT-4 leukemia = system: MOLT-4 leukemia
K-562 leukemia = system: K-562 leukemia
PC-3 prostate = system: PC-3 prostate
786-0 renal = system: 786-0 renal
SK-MEL-2 melanoma = system: SK-MEL-2 melanoma
MDA-MB-435 = system: MDA-MB-435
UO-31 renal = system: UO-31 renal
M14 melanoma = system: M14 melanoma
SN12C renal = system: SN12C renal
COLO 205 colon = system: COLO 205 colon
U251 CNS = system: U251 CNS
SNB-75 CNS = system: SNB-75 CNS
EKVX NSCLC = system: EKVX NSCLC
RPMI-8226 leukemia = system: RPMI-8226 leukemia
CCRF-CEM leukemia = system: CCRF-CEM leukemia
NCI-H226 lung = system: NCI-H226 lung
BT-549 breast = system: BT-549 breast
SNB-19 CNS = system: SNB-19 CNS
A498 renal = system: A498 renal
OVCAR-5 ovarian = system: OVCAR-5 ovarian
SW-620 colon = system: SW-620 colon
T-47D breast = system: T-47D breast
SK-MEL-5 melanoma = system: SK-MEL-5 melanoma
NCI/ADR-RES ovarian = system: NCI/ADR-RES ovarian
HT29 colon = system: HT29 colon
CAKI-1 renal = system: CAKI-1 renal
OVCAR-8 ovarian = system: OVCAR-8 ovarian
SR leukemia = system: SR leukemia
ACHN renal = system: ACHN renal
NCI-H522 lung = system: NCI-H522 lung
NCI-H460 lung = system: NCI-H460 lung
SF-268 CNS = system: SF-268 CNS
HS 578T breast = system: HS 578T breast
HL-60(TB) leukemia = system: HL-60(TB) leukemia
HOP-62 NSCLC = system: HOP-62 NSCLC
MALME-3M melanoma = system: MALME-3M melanoma
HCT-15 colon = system: HCT-15 colon
A549 NSCLC = system: A549 NSCLC
MDA-MB-231 breast = system: MDA-MB-231 breast
OVCAR-4 ovarian = system: OVCAR-4 ovarian
KM12 colon = system: KM12 colon
SK-MEL-28 melanoma = system: SK-MEL-28 melanoma
RXF 393 renal = system: RXF 393 renal
HCT-116 colon = system: HCT-116 colon
SK-OV-3 ovarian = system: SK-OV-3 ovarian
HCC-2998 colon = system: HCC-2998 colon
IGROV1 ovarian = system: IGROV1 ovarian
SF-295 CNS = system: SF-295 CNS
NCI-H23 lung = system: NCI-H23 lung
TK-10 renal = system: TK-10 renal
SF-539 CNS = system: SF-539 CNS
LOX IMVI melanoma = system: LOX IMVI melanoma
UACC-62 melanoma = system: UACC-62 melanoma
OVCAR-3 ovarian = system: OVCAR-3 ovarian
DU-145 prostate = system: DU-145 prostate

For `ClCc1ccccc1Cn1cnc2nc(Cl)nc(Cl)c21`, the GI50 (UACC-257 melanoma) was 1.6 µM, the TGI (UACC-257 melanoma) was 5.22 µM and the GI50 (MOLT-4 leukemia) was 1.49 µM. For the same molecule, the TGI (MOLT-4 leukemia) was 4.09 µM, the GI50 (K-562 leukemia) was 0.239 µM and the TGI (K-562 leukemia) was 2.95 µM. For the same molecule, the GI50 (PC-3 prostate) was 0.323 µM, the TGI (PC-3 prostate) was 1.81 µM and the GI50 (786-0 renal) was 0.19 µM. It also gave a TGI (786-0 renal) of 1.08 µM, a GI50 (SK-MEL-2 melanoma) of 1.89 µM and a TGI (SK-MEL-2 melanoma) of 8.59 µM. For the same molecule, the GI50 (MDA-MB-435) was 6.04 µM, the TGI (MDA-MB-435) was 13.2 µM and the GI50 (UO-31 renal) was 1.26 µM. It also gave a TGI (UO-31 renal) of 2.52 µM, a GI50 (M14 melanoma) of 0.851 µM and a TGI (M14 melanoma) of 2.46 µM. For the same molecule, the GI50 (SN12C renal) was 1.17 µM, the TGI (SN12C renal) was 2.56 µM and the GI50 (COLO 205 colon) was 0.357 µM. The TGI (COLO 205 colon) was > 100 µM, the GI50 (U251 CNS) was 0.414 µM and the TGI (U251 CNS) was 1.47 µM. For the same molecule, the GI50 (SNB-75 CNS) was 1.6 µM, the TGI (SNB-75 CNS) was 3.43 µM and the GI50 (EKVX NSCLC) was 0.62 µM. For the same molecule, the TGI (EKVX NSCLC) was 1.54 µM, the GI50 (RPMI-8226 leukemia) was 0.0318 µM and the TGI (RPMI-8226 leukemia) was 0.272 µM. The GI50 (CCRF-CEM leukemia) was 0.104 µM, the TGI (CCRF-CEM leukemia) was 0.305 µM and the GI50 (NCI-H226 lung) was 1.18 µM. The TGI (NCI-H226 lung) was 9.52 µM, the GI50 (BT-549 breast) was 1.34 µM and the TGI (BT-549 breast) was 3.08 µM. The GI50 (SNB-19 CNS) was 1.14 µM, the TGI (SNB-19 CNS) was 2.51 µM and the GI50 (A498 renal) was 2.13 µM. It also gave a TGI (A498 renal) of 4.83 µM, a GI50 (OVCAR-5 ovarian) of 1.71 µM and a TGI (OVCAR-5 ovarian) of 3.65 µM. It also gave a GI50 (SW-620 colon) of 0.266 µM, a TGI (SW-620 colon) of 0.682 µM and a GI50 (T-47D breast) of 0.59 µM. For the same molecule, the TGI (T-47D breast) was 5.24 µM, the GI50 (SK-MEL-5 melanoma) was 0.369 µM and the TGI (SK-MEL-5 melanoma) was 0.997 µM. The GI50 (NCI/ADR-RES ovarian) was 1.07 µM, the TGI (NCI/ADR-RES ovarian) was 3.96 µM and the GI50 (HT29 colon) was 0.412 µM. The TGI (HT29 colon) was > 100 µM, the GI50 (CAKI-1 renal) was 7.16 µM and the TGI (CAKI-1 renal) was 18.5 µM. For the same molecule, the GI50 (OVCAR-8 ovarian) was 2.54 µM, the TGI (OVCAR-8 ovarian) was 8.88 µM and the GI50 (SR leukemia) was 0.64 µM. For the same molecule, the TGI (SR leukemia) was 5.66 µM, the GI50 (ACHN renal) was 0.209 µM and the TGI (ACHN renal) was 0.609 µM. The GI50 (NCI-H522 lung) was 2.94 µM, the TGI (NCI-H522 lung) was 7.17 µM and the GI50 (NCI-H460 lung) was 2.09 µM. For the same molecule, the TGI (NCI-H460 lung) was > 24.3 µM, the GI50 (SF-268 CNS) was 0.379 µM and the TGI (SF-268 CNS) was > 49.4 µM. For the same molecule, the GI50 (HS 578T breast) was 0.331 µM, the TGI (HS 578T breast) was 1.22 µM and the GI50 (HL-60(TB) leukemia) was 1.35 µM. It also gave a TGI (HL-60(TB) leukemia) of 8.45 µM, a GI50 (HOP-62 NSCLC) of 2.35 µM and a TGI (HOP-62 NSCLC) of 4.4 µM. For the same molecule, the GI50 (MALME-3M melanoma) was 1.68 µM, the TGI (MALME-3M melanoma) was 7.75 µM and the GI50 (HCT-15 colon) was 0.197 µM. It also gave a TGI (HCT-15 colon) of 0.434 µM, a GI50 (A549 NSCLC) of 5.29 µM and a TGI (A549 NSCLC) of 13.2 µM. The GI50 (MDA-MB-231 breast) was 0.219 µM, the TGI (MDA-MB-231 breast) was 0.642 µM and the GI50 (OVCAR-4 ovarian) was 1.76 µM. It also gave a TGI (OVCAR-4 ovarian) of 4.46 µM, a GI50 (KM12 colon) of 5.93 µM and a TGI (KM12 colon) of 24.2 µM. The GI50 (SK-MEL-28 melanoma) was 0.582 µM, the TGI (RXF 393 renal) was 2.94 µM and the GI50 (HCT-116 colon) was 0.115 µM. For the same molecule, the TGI (HCT-116 colon) was 0.236 µM, the GI50 (SK-OV-3 ovarian) was 4.35 µM and the TGI (SK-OV-3 ovarian) was 15.4 µM. For the same molecule, the GI50 (HCC-2998 colon) was 3.96 µM, the TGI (HCC-2998 colon) was 8.56 µM and the GI50 (IGROV1 ovarian) was 1.78 µM. For the same molecule, the TGI (IGROV1 ovarian) was 3.47 µM, the GI50 (SF-295 CNS) was 9.28 µM and the TGI (SF-295 CNS) was 32.3 µM. The GI50 (NCI-H23 lung) was 2.21 µM, the TGI (NCI-H23 lung) was 7.14 µM and the GI50 (TK-10 renal) was 13.5 µM. It also gave a TGI (TK-10 renal) of 29.8 µM, a GI50 (SF-539 CNS) of 0.639 µM and a TGI (SF-539 CNS) of 1.29 µM. It also gave a GI50 (LOX IMVI melanoma) of 0.137 µM, a TGI (LOX IMVI melanoma) of 0.301 µM and a GI50 (UACC-62 melanoma) of 0.495 µM. It also gave a TGI (UACC-62 melanoma) of 1.37 µM, a GI50 (OVCAR-3 ovarian) of 5.29 µM and a TGI (OVCAR-3 ovarian) of 12.3 µM. It also gave a GI50 (DU-145 prostate) of 0.548 µM and a TGI (DU-145 prostate) of 1.33 µM.

Reference: PubChem BioAssay (NCI)
